Test results from ChEMBL document CHEMBL1201862, “PubChem BioAssay data set” (2004).
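All cell lines were grown in 96-well plates and treated with compound for 48 hours. The concentration for 50% growth inhibition is given as GI50.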 Calls of active or inactive are those of the source. Cut-off read from the data, not from the text of the source: active = GI50 up to about 1.1 µM and inactive = higher.

Experiments:
Assay in all cases: NCI-60 cell line screen, 48 h
NCI-H226 = test system: NCI-H226
EKVX = test system: EKVX
CAKI-1 = test system: CAKI-1
PC-3 = test system: PC-3
COLO 205 = test system: COLO 205
NCI-H23 = test system: NCI-H23
IGROV-1 = test system: IGROV-1
BT-549 = test system: BT-549
Hs-578T = test system: Hs-578T
786-0 = test system: 786-0
A498 = test system: A498
LOX IMVI = test system: LOX IMVI
MCF7 = test system: MCF7
SK-MEL-2 = test system: SK-MEL-2
MDA-N = test system: MDA-N
M14 = test system: M14
DU-145 = test system: DU-145
U-251 = test system: U-251
K562 = test system: K562
SK-MEL-5 = test system: SK-MEL-5
SF-539 = test system: SF-539
RXF 393 = test system: RXF 393
HCC 2998 = test system: HCC 2998
OVCAR-4 = test system: OVCAR-4
MDA-MB-231 = test system: MDA-MB-231
HCT-116 = test system: HCT-116
SK-MEL-28 = test system: SK-MEL-28
HL-60 = test system: HL-60
UACC-257 = test system: UACC-257
SR = test system: SR
SK-OV-3 = test system: SK-OV-3
T47D = test system: T47D
HOP-92 = test system: HOP-92
HT-29 = test system: HT-29
OVCAR-5 = test system: OVCAR-5
HCT-15 = test system: HCT-15
SF-268 = test system: SF-268
A549 = test system: A549
SN12C = test system: SN12C
MDA-MB-435 = test system: MDA-MB-435
KM12 = test system: KM12
MOLT-4 = test system: MOLT-4
ACHN = test system: ACHN
TK-10 = test system: TK-10
OVCAR-3 = test system: OVCAR-3
CCRF-CEM = test system: CCRF-CEM
SNB-19 = test system: SNB-19
SF-295 = test system: SF-295
NCI-H522 = test system: NCI-H522
OVCAR-8 = test system: OVCAR-8
NCI-H460 = test system: NCI-H460
RPMI-8226 = test system: RPMI-8226
NCI/ADR-RES = test system: NCI/ADR-RES
Malme-3M = test system: Malme-3M
SW-620 = test system: SW-620
UACC-62 = test system: UACC-62
SNB-75 = test system: SNB-75
HOP-62 = test system: HOP-62

## O=C1NC(=O)C(c2c[nH]c3ccccc23)=C1c1cn(C(c2ccccc2)(c2ccccc2)c2ccccc2)cn1
NCI-H226
  GI50: 5.87 µM (inactive)
EKVX
  GI50: 4.19 µM (inactive)
CAKI-1
  GI50: 35.4 µM (inactive)
PC-3
  GI50: 2.58 µM (inactive)
COLO 205
  GI50: 3.73 µM (inactive)
NCI-H23
  GI50: 6.35 µM (inactive)
IGROV-1
  GI50: 8.87 µM (inactive)
BT-549
  GI50: 12.7 µM (inactive)
Hs-578T
  GI50: 20.8 µM (inactive)
786-0
  GI50: 6.52 µM (inactive)
A498
  GI50: 5.32 µM (inactive)
LOX IMVI
  GI50: 6.95 µM (inactive)
MCF7
  GI50: 3.05 µM (inactive)
SK-MEL-2
  GI50: 11.2 µM (inactive)
MDA-N
  GI50: 4.75 µM (inactive)
M14
  GI50: 4.76 µM (inactive)
DU-145
  GI50: 19.6 µM (inactive)
U-251
  GI50: 4.25 µM (inactive)
K562
  GI50: 4.2 µM (inactive)
SK-MEL-5
  GI50: 7.57 µM (inactive)
SF-539
  GI50: 15.4 µM (inactive)
RXF 393
  GI50: 4.52 µM (inactive)
HCC 2998
  GI50: 4.63 µM (inactive)
OVCAR-4
  GI50: 4.06 µM (inactive)
MDA-MB-231
  GI50: 12.8 µM (inactive)
HCT-116
  GI50: 3.34 µM (inactive)
SK-MEL-28
  GI50: 16.2 µM (inactive)
HL-60
  GI50: 2.9 µM (inactive)
UACC-257
  GI50: 11.2 µM (inactive)
SR
  GI50: 2.7 µM (inactive)
SK-OV-3
  GI50: 14.7 µM (inactive)
T47D
  GI50: 7.19 µM (inactive)
HOP-92
  GI50: 7.13 µM (inactive)
HT-29
  GI50: 4.06 µM (inactive)
OVCAR-5
  GI50: 8.73 µM (inactive)
HCT-15
  GI50: 3.66 µM
SF-268
  GI50: 11.7 µM (inactive)
A549
  GI50: 3.14 µM (inactive)
SN12C
  GI50: 5.7 µM (inactive)
MDA-MB-435
  GI50: 3.92 µM (inactive)
KM12
  GI50: 4.06 µM (inactive)
MOLT-4
  GI50: 2.48 µM (inactive)
ACHN
  GI50: 4.8 µM (inactive)
TK-10
  GI50: 10.7 µM (inactive)
OVCAR-3
  GI50: 6.76 µM (inactive)
CCRF-CEM
  GI50: 3.98 µM (inactive)
SNB-19
  GI50: 11.3 µM (inactive)
SF-295
  GI50: 5.27 µM (inactive)
NCI-H522
  GI50: 8.75 µM (inactive)
OVCAR-8
  GI50: 5.33 µM (inactive)
NCI-H460
  GI50: 3.66 µM (inactive)
RPMI-8226
  GI50: 3.13 µM (inactive)
NCI/ADR-RES
  GI50: 4.29 µM (inactive)
Malme-3M
  GI50: 10.4 µM (inactive)
SW-620
  GI50: 8.81 µM (inactive)
UACC-62
  GI50: 12.5 µM (inactive)
SNB-75
  GI50: 10.2 µM (inactive)

## C=CCc1cccc2cc(C(=O)Nc3ccccc3)c(=N)oc12
NCI-H226
  GI50: 36.6 µM (inactive)
CAKI-1
  GI50: 63.2 µM (inactive)
PC-3
  GI50: 39.2 µM (inactive)
COLO 205
  GI50: > 100 µM (inactive)
NCI-H23
  GI50: 79.8 µM (inactive)
IGROV-1
  GI50: 33.2 µM (inactive)
BT-549
  GI50: > 100 µM (inactive)
Hs-578T
  GI50: 37.6 µM (inactive)
786-0
  GI50: 30.3 µM (inactive)
A498
  GI50: 23.2 µM (inactive)
LOX IMVI
  GI50: > 100 µM (inactive)
MCF7
  GI50: 7.11 µM (inactive)
SK-MEL-2
  GI50: 8.47 µM (inactive)
MDA-N
  GI50: 70.6 µM (inactive)
M14
  GI50: 60.7 µM (inactive)
DU-145
  GI50: > 100 µM (inactive)
U-251
  GI50: > 100 µM (inactive)
K562
  GI50: 64 µM (inactive)
SK-MEL-5
  GI50: 21.7 µM (inactive)
SF-539
  GI50: 28.2 µM (inactive)
RXF 393
  GI50: > 100 µM (inactive)
HCC 2998
  GI50: 4.8 µM (inactive)
OVCAR-4
  GI50: 15.6 µM (inactive)
MDA-MB-231
  GI50: > 100 µM (inactive)
HCT-116
  GI50: 18.1 µM (inactive)
SK-MEL-28
  GI50: 80.4 µM (inactive)
HL-60
  GI50: > 100 µM (inactive)
UACC-257
  GI50: > 100 µM (inactive)
SR
  GI50: > 100 µM (inactive)
SK-OV-3
  GI50: 61.7 µM (inactive)
T47D
  GI50: 11.9 µM (inactive)
HOP-92
  GI50: > 100 µM (inactive)
HT-29
  GI50: > 100 µM (inactive)
OVCAR-5
  GI50: 38.8 µM (inactive)
HCT-15
  GI50: 33.6 µM
SF-268
  GI50: > 100 µM (inactive)
A549
  GI50: 15 µM (inactive)
SN12C
  GI50: 55.8 µM (inactive)
MDA-MB-435
  GI50: 27.9 µM (inactive)
KM12
  GI50: 38.9 µM (inactive)
MOLT-4
  GI50: > 100 µM (inactive)
ACHN
  GI50: 10.1 µM (inactive)
OVCAR-3
  GI50: > 100 µM (inactive)
CCRF-CEM
  GI50: > 100 µM (inactive)
SNB-19
  GI50: > 100 µM (inactive)
NCI-H522
  GI50: 10.4 µM (inactive)
OVCAR-8
  GI50: > 100 µM (inactive)
NCI-H460
  GI50: 63.2 µM (inactive)
RPMI-8226
  GI50: > 100 µM (inactive)
NCI/ADR-RES
  GI50: > 100 µM (inactive)
Malme-3M
  GI50: 7.14 µM (inactive)
SW-620
  GI50: > 100 µM (inactive)
UACC-62
  GI50: 41.1 µM (inactive)
HOP-62
  GI50: > 100 µM (inactive)
SNB-75
  GI50: 52.4 µM (inactive)
